Experimental data: patent US20230117470A1, “SUBSTITUTED PYRAZOLE COMPOUNDS AS TOLL RECEPTOR INHIBITORS” (BRISTOL-MYERS SQUIBB COMPANY, priority 2019, published 2023)

What was measured:
Type in all cases: cell-based
human TLR7 = molecular target: T1, human TLR7 (Homo sapiens, UniProt Q9NYK1); assay: TLR7 inhibition reporter assay (HEK-Blue cells, SEAP reporter, gardiquimod stimulation); details: HEK-Blue cells overexpressing human TLR7, SEAP reporter, gardiquimod 7.5 μM
T1 construct: host or cells: HEK-Blue cells
T1 sequence (Q9NYK1 27-1049): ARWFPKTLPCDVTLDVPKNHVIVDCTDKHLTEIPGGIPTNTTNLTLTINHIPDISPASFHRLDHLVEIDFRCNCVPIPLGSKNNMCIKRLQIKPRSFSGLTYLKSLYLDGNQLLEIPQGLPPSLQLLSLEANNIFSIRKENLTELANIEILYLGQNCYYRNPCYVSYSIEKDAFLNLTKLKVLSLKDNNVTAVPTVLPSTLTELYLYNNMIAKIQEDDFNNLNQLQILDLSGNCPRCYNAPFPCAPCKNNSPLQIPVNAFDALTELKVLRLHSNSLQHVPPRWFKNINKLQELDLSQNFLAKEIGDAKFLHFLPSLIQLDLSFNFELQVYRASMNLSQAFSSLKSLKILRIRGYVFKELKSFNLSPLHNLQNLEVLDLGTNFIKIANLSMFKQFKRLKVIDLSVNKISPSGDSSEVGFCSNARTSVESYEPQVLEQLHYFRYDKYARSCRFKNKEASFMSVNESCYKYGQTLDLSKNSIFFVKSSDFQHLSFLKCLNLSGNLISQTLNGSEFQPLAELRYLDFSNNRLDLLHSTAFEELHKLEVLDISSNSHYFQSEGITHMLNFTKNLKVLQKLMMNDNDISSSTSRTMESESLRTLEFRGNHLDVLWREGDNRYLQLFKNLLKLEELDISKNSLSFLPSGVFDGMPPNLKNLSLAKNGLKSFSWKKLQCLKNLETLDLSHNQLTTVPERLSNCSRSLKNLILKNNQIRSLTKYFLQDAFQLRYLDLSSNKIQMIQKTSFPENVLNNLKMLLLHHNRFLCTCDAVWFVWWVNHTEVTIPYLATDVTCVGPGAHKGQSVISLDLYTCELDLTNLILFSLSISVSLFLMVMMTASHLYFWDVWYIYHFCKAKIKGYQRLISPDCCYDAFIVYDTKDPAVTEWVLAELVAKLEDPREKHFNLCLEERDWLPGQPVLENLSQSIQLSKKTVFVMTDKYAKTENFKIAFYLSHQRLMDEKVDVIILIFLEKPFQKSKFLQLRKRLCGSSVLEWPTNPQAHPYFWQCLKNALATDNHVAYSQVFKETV
How it was run: (§1)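 HEK-Blue cells overexpressing human TLR7, TLR8 or TLR9, with an NF-κB/AP-1-driven SEAP reporter, pre-treated 30 min at room temperature with compound (0.05 nM-50 μM final). Stimulated with 7.5 μM gardiquimod (TLR7), 15.9 μM R848 (TLR8) or 5 nM ODN2006 (TLR9), then 22 h at 37° C. SEAP read with HEK-Blue Detection; % inhibition set against agonist+DMSO and known-inhibitor wells.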

human TLR8 = molecular target: T2, human TLR8 (Homo sapiens, UniProt Q9NR97); assay: TLR8 inhibition reporter assay (HEK-Blue cells, SEAP reporter, R848 stimulation); details: HEK-Blue cells overexpressing human TLR8, SEAP reporter, R848 15.9 μM
T2 construct: host or cells: HEK-Blue cells
T2 sequence (Q9NR97 27-1041): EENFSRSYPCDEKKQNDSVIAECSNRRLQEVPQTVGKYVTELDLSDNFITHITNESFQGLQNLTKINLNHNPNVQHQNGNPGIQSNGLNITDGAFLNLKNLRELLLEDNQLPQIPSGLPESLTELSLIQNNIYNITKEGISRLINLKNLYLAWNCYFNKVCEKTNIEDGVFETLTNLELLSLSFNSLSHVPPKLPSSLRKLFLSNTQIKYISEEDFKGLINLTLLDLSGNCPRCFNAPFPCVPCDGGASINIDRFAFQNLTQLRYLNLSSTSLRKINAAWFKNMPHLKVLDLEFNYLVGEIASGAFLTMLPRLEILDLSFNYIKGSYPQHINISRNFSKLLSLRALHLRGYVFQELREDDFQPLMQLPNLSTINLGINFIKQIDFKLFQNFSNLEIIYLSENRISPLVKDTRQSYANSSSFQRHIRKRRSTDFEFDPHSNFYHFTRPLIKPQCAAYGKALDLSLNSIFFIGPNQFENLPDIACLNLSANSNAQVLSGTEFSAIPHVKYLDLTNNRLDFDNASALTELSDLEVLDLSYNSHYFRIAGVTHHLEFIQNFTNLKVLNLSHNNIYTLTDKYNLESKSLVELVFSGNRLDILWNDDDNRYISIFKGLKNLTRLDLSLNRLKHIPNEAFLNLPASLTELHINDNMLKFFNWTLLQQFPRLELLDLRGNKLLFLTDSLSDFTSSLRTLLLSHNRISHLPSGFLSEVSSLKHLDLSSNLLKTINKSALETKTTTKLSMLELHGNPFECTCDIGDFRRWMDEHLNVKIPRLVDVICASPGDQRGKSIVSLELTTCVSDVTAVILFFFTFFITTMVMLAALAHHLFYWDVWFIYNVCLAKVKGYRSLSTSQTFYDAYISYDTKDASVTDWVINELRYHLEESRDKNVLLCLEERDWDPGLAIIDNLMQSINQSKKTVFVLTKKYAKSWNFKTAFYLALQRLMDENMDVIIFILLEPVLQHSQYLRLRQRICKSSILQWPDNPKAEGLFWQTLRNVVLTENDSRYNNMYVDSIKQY
How it was run: as §1

human TLR9 = molecular target: T3, human TLR9 (Homo sapiens, UniProt Q9NR96); assay: TLR9 inhibition reporter assay (HEK-Blue cells, SEAP reporter, ODN2006 stimulation); details: HEK-Blue cells overexpressing human TLR9, SEAP reporter, ODN2006 5 nM
T3 construct: host or cells: HEK-Blue cells
T3 sequence (Q9NR96 26-1032): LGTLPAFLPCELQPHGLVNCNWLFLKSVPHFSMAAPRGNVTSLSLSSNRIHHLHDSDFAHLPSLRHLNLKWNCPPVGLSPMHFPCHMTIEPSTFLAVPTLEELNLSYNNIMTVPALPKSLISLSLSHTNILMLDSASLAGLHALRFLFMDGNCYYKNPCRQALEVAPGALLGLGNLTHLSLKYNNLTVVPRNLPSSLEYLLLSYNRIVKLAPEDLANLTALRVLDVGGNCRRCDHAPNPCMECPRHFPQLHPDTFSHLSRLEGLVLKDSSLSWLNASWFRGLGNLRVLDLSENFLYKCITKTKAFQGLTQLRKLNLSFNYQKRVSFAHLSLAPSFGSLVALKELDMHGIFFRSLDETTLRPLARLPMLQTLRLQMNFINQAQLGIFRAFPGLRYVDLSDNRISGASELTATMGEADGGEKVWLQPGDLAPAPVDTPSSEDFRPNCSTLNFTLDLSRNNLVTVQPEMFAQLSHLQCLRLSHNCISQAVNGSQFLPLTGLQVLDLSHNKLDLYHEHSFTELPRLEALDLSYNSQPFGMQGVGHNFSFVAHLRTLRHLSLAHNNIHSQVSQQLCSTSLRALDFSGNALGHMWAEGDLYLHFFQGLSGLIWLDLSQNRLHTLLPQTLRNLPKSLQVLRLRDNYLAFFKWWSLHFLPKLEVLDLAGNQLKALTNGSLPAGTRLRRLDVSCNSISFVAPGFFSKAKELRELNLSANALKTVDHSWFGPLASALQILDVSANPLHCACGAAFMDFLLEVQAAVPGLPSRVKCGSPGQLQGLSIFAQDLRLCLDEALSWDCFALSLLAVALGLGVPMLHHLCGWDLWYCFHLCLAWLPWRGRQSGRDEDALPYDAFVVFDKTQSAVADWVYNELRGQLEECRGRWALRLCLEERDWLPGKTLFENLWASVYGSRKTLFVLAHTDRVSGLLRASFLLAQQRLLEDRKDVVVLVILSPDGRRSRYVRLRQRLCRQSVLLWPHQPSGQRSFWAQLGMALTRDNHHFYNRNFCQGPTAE
How it was run: as §1

| Structure (SMILES) | IC50 (human TLR7) [nM] | IC50 (human TLR8) [nM] | IC50 (human TLR9) [nM] |
| --- | --- | --- | --- |
| Cc1cc(-c2[nH]nc(C3CCC(N(C)C(=O)C4CNC4)CC3)c2C(C)C)cn2ncnc12 (stereo not drawn) [compound 301] | 7.77 | 1.53 | 12300 |
| Cc1cc(-c2[nH]nc(C(=O)N[C@H]3CC[C@H](NCC4CCOCC4)CC3)c2C(C)C)cn2ncnc12 [Example 111] | 2.97 | 33.7 | 3930 |
| CCC(CC)CN1CCC(NC(=O)c2n[nH]c(-c3cc(C)c4ncnn4c3)c2C(C)C)CC1 [Example 79] | 2.29 | 9.23 | 4120 |
| Cc1cc(-c2c(C(C)C)c(C(=O)NC3CCN(C(C)C)CC3)nn2C)cn2ncnc12 [Example 188, 4-isopropyl-N-(1-isopropylpiperidin-4-yl)-1-methyl-5-(8-methyl-[1,2,4]triazolo[1,5-a]pyridin-6-yl)-1H-pyrazole-3-carboxamide] | 0.71 | 0.58 | 10800 |
| Cc1cc(-c2[nH]nc(C(=O)N[C@H]3CC[C@H](NCc4cncnc4)CC3)c2C(C)C)cn2ncnc12 [Example 113] | 1.09 | 27.1 | 7800 |
| CCN1CCC(c2cnc(-c3n[nH]c(-c4cc(C)c5ncnn5c4)c3C(C)C)nc2)CC1 [Example 369] | 18 | 33 | 46900 |
| Cc1cc(-c2[nH]nc(-c3nc4c(s3)CN(C3COC3)CC4)c2C(C)C)cn2ncnc12 [Example 253] | 4.7 | 3.01 | 23000 |
| COc1cc(-c2[nH]nc(-c3ccc(C4CN(C(C)C)C4)cc3)c2C(C)C)cn2ncnc12 [Example 331] | 4.29 | 0.49 | 6310 |
| COc1cc(-c2[nH]nc(-c3ccc(C4CCN(C)CC4)cc3)c2C(C)C)cn2ncnc12 [Example 314] | 13.9 | 18.5 | > 50000 |
| Cc1cc(-c2[nH]nc(-c3ccc4c(c3)CCN(CC(=O)N(C)C)C4)c2C(C)C)cn2ncnc12 [Example 271, 2-(6-(4-isopropyl-5-(8-methyl-[1,2,4]triazolo[1,5-a]pyridin-6-yl)-1H-pyrazol-3-yl)-3,4-dihydroisoquinolin-2(1H)-yl)-N,N-dimethylacetamide] | 0.96 | 1.94 | 4560 |
| Cc1cc(-c2[nH]nc(C3CCC(N(C)C(=O)CN(C)C)CC3)c2C(C)C)cn2ncnc12 (single isomer, unassigned) [compound 297] | 2.25 | 0.27 | 8910 |
| CNC(=O)CN1CCC(c2cnc(-c3n[nH]c(-c4cc(OC)c5ncnn5c4)c3C(C)C)cn2)CC1 [Example 400] | 13.5 | 15.9 | 9250 |
| Cc1cc(-c2[nH]nc(-c3ccc(C4CCN(C(=O)CN(C)C)CC4)cc3)c2C(C)C)cn2ncnc12 [Example 323, 2-(dimethylamino)-1-(4-(4-(4-isopropyl-5-(8-methyl-[1,2,4]triazolo[1,5-a]pyridin-6-yl)-1H-pyrazol-3-yl)phenyl)piperidin-1-yl)ethan-1-one] | 22.4 | 3.86 | > 50000 |
| CC(C)c1c(C(=O)NC2CCN(C(C)C)CC2)n[nH]c1-c1ccc(C#N)c2ncccc12 [Example 40] | 29.9 | 31.1 | 18900 |
| Cc1cc(-c2[nH]nc(C3CCC(N(C)C(=O)C4CN(C(C)C)C4)CC3)c2C(C)C)cn2ncnc12 (single isomer, unassigned) [Example 304] | 8.2 | 19.2 | 35600 |
| CCCN1CCC(c2ccc(-c3n[nH]c(-c4cc(OC)c5ncnn5c4)c3C(C)C)nc2)CC1 [Example 349] | 91 | 1.85 | > 50000 |
| COc1cc(-c2[nH]nc(-c3ccc(C4CCN(CC(C)(C)O)CC4)cc3)c2C(C)C)cn2ncnc12 [Example 319] | 3.84 | 0.53 | 19400 |
| CNCc1n[nH]c(-c2cc(C)c3ncnn3c2)c1C(C)C [Example 185] | 7.42 | 3.38 | 23000 |
| Cc1cc(-c2[nH]nc(CNC3CCN(C(C)C)CC3)c2C(C)C)cn2ncnc12 [Example 186] | 1.59 | 0.21 | 5920 |
| Cc1cc(-c2[nH]nc(-c3ccc4c(c3)CNCC4)c2C(C)C)cn2ncnc12 [Example 231] | 6.32 | 1.19 | 49500 |
| COc1cc(-c2[nH]nc(-c3ccc(C4CN(CCS(C)(=O)=O)C4)cc3)c2C(C)C)cn2ncnc12 [Example 338] | 10.1 | 31.1 | 45600 |
| CCN1CCC(c2ccc(-c3n[nH]c(-c4cc(C)c5ncnn5c4)c3C(C)C)nc2)CC1 [Example 366] | > 3130 | > 3130 | 6260 |
| COc1ccc(-c2[nH]nc(C(=O)NC3CCN(C(C)C)CC3)c2C(C)C)cc1OC [Example 34] | 4.44 | 4.94 | > 50000 |
